The record followed here is article PMC8477192, “An ionic lock and a hydrophobic zipper mediate the coupling between an insect pheromone receptor BmOR3 and downstream effectors” (The Journal of Biological Chemistry, 2021).

The test system of test [1] is BmOR3 and BmOrco. Kind of test: CalfluxVTN Ca2+ assay (BRET-based calcium sensor). The format is cell-based, Bombyx mori. The procedure:
HEK293 cells were cotransfected with plasmids encoding WT BmOR3 and BmOrco or their mutants, or AT1R together with CalfluxVTN probe. 24 h after transfection, cells were redistributed into 96-well flat-bottomed microplates. After another 24 h, cells were incubated with conventional buffer with Ca^2+ (135 mM NaCl, 5 mM KCl, 1 mM CaCl2, 5 mM D-glucose, 10 mM Hepes; pH = 7.4) or with Ca^2+-free buffer (135 mM NaCl, 5 mM KCl, 1 mM EGTA, 5 mM D-glucose, 10 mM Hepes; pH = 7.4), and stimulated with different concentrations of Bombykal (or AngII). The BRET ratio between Venus and Nluc was measured before (baseline) and after the addition of the Nluc substrate furimazine (5 μM) using a Mithras LB 940 multimode reader (Berthold Technologies). The BRET signal was calculated as ratio of emission of Venus (530 nm) to Nluc (460 nm). The baseline value was subtracted from the bombykal-stimulated BRET signal to obtain the ΔBRET value.

Test [2] addresses T1, BmOR3 (Bombyx mori, UniProt Q5FBE0). Put plainly: G protein recruitment BRET assay (Gi-Rluc to YFP-BmOR3). Particulars: HEK293 cells, 2 min stimulation. The format is cell-based. The procedure: Gi1-Rluc, Gi2-Rluc, and Gi3-Rluc plasmids were constructed according to previous report ([30]). HEK293 cells were transiently cotransfected with N-terminal YFP-tagged BmOR3 together with Gi-Rluc plasmids. Twenty-four hours after transfection, cells were distributed into a 96-well microplate. After another 24 h, the cells were stimulated with an increasing amount of bombykal for 2 min. The light emission of Rluc (485 nm) and YFP (530 nm) was measured after the addition of the Rluc substrate coelenterazine h (5 μM) using a Mithras LB 940 multimode reader (Berthold Technologies). The BRET signal was calculated as the ratio of emission of YFP to Rluc. The net BERT value was calculated by subtracting the BRET signal obtained in the cells transfected with Rluc-Gi plasmids only.
Background: Bioluminescence resonance energy transfer reports proximity on the nanometre scale.

For test [3], the target named is T1, BmOR3. Kind of test: GloSensor cAMP assay. In kind it is cell-based. Particulars: BmOR3-transfected HEK293 cells, not in mock cells; 1 μM forskolin. The procedure:
The GloSensor cAMP assay was performed as previously described ([40], [55], [56]). Briefly, HEK293 cells were transfected with the BmOR3 plasmid or empty vector pcDNA3.1 together with the GloSensor plasmid. 24 h after transfection, cells were distributed into 96-well microplates at a density of 50,000 cells/well. After another 24 h, the cells were incubated with DMEM containing 2% (v/v) GloSensor cAMP reagent for 2 h at 37 °C. Cells were then treated with varying concentrations of bombykal followed by the stimulation of 1 μM forskolin. The luminescence intensity was measured using an EnVision multi-label microplate detector (PerkinElmer).
In general terms: Cyclic AMP is a second messenger, typically raised through Gs and lowered through Gi signalling.

The target in test [4] is T1, BmOR3. Put plainly: Arrestin recruitment BRET assay. The settings on record: HEK293 cells, 10 min stimulation. The format is cell-based. The procedure: HEK293 cells were transiently cotransfected with the N-terminal YFP-tagged BmOR3 together with N-terminal Rluc-fused β-arrestin-1, β-arrestin-2, or BmArr plasmids. Twenty-four hours after transfection, cells were distributed into a 96-well microplate and incubated for additional 24 h. The cells were stimulated with varying concentrations of bombykal for 10 min, and the BRET signal between YFP (530 nm) and Rluc (485 nm) was measured after the addition of the Rluc substrate coelenterazine h (5 μM) using a Mithras LB 940 multimode reader (Berthold Technologies). The BRET signal was calculated as the ratio of emission of YFP to Rluc.
For orientation: Arrestin recruitment assays detect the binding of arrestin to an activated receptor.

In test [5] the target is T1, BmOR3. Kind of test: BRET-based internalization assay (Rluc-BmOR3 / Lyn-YFP). Particulars: HEK293 cells; 1 μM, 20 min. The format is cell-based. The procedure: BRET-based internalization assay was performed as previously described ([57]). Briefly, HEK293 cells treated with Ctrl or β-arrestin-1/2 siRNA, or pretransfected with BmArr, were transiently transfected with N-terminal Rluc-fused BmOR3 and plasma membrane marker Lyn-YFP. Twenty-four hours after transfection, the cells were detached and distributed into a 96-well microplate. After another 24-h incubation at 37 °C, the cells were stimulated with vehicle or 1 μM bombykal at 37 °C for 20 min. Rluc substrate coelenterazine h was added at a final concentration of 5 μM before light emissions of YFP and Rluc were recorded using a Mithras LB 940 microplate reader (Berthold Technologies). The BRET signal was calculated as the ratio of emission of YFP to Rluc.

Test [6] concerns the target T1, BmOR3. Put plainly: Arrestin-kinase BRET assay. The format is cell-based. The settings on record: HEK293 cells transfected with BmOR3, BmArr-Rluc and YFP-tagged kinases; 1 μM, 10 min. The procedure:
Twenty-four hours after transfection, cells were distributed into a 96-well microplate. After another 24 h, the cells were stimulated with 1 μM bombykal (for BmOR3-transfected cells) or 1 μM AngII for 10 min (for AT1R-transfected cells). BRET between RLuc and YFP was measured using a Mithras LB 940 multimode reader after the addition of the RLuc substrate coelenterazine h (5 μM). The BRET signal was calculated as the ratio of emission of YFP (530 nm) to RLuc (485 nm).

T1 sequence (Q5FBE0 entry or part of it): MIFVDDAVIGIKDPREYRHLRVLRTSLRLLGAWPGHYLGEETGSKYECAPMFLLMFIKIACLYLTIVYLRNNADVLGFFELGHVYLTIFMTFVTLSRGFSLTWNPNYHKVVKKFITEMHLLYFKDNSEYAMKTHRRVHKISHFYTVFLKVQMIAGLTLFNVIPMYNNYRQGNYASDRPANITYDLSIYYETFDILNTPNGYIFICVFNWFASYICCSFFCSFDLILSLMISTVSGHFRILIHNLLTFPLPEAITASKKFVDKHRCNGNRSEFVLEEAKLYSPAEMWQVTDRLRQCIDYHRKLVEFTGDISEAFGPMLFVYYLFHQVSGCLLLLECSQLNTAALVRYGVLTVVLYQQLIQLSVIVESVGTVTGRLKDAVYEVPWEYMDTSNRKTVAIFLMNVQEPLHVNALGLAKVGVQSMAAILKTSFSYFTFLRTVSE

For the compound `CCC/C=C\C=C\CCCCCCCCC=O` [bombykal], the “Ca2+ signal through BmOR3–BmOrco in the Ca2+-free incubating buffer” value in test [1] (1 μM, Ca2+-free buffer versus Ca-containing buffer) is on record as “completely abolished”. The “Ca2+ response through BmOR3/BmOrco relative to that induced by angiotensin II through activating AT1R” value in test [1] (1 μM, CalfluxVTN-expressing HEK293 cells, receptors expressed at similar levels) was “approximately 70%”. The “calcium influx in response to stimulation” value in test [1] (HEK293 cells coexpressing BmOR3 and BmOrco, not with BmOR3 or BmOrco alone) is reported as “elicited robust calcium influx”. Moreover, the EC50 amounted to 11.7 ± 1.19 nM in test [2] (Gi1, read-out: EC50 of coupling of Rluc-tagged Gi1 to YFP-fused BmOR3); 22 ± 3.22 nM in test [2] (Gi2, read-out: EC50 of coupling of Rluc-tagged Gi2 to YFP-fused BmOR3); 10.6 ± 2.06 nM in test [2] (Gi3, read-out: EC50 of coupling of Rluc-tagged Gi3 to YFP-fused BmOR3); 90 ± 11.1 nM in test [4] (BmArr1, read-out: potency of recruitment of BmArr1 to BmOR3 (concentration-dependent)); 151 ± 21.3 nM in test [4] (β-arrestin-2, read-out: potency of recruitment of β-arrestin-2 to BmOR3 (concentration-dependent)). Besides, in test [3], the “forskolin-induced cAMP” value was “concentration-dependent decrease”. For the same compound, in test [5], the “BmOR3 internalization (BRET signal between Rluc-BmOR3 and Lyn-YFP)” value was “significant decrease in the BRET signal”. The “association of β-arrestin with ERK, SRC, and AKT” value in test [6] was “increased association”.
